# ChEMBL document CHEMBL3885861, “Open TG-GATES”
# Species: Rattus norvegicus
# Assay: Open TG-GATES - Regimen: Daily Repeat
# Type: toxicity, organism-based, Sprague-Dawley
# Parameters: regimen Daily Repeat, gender Male, age 6 weeks
# Settings: in vivo, po, route gavage; for TP / gamma-GTP / ALP / ALT / AST / BUN / CRE / Ca / Cl / DBIL / GLC / IP / K / LDH / Na / PL / RALB / TBIL / TC / TG: tissue Plasma; for APTT / Bas / Eos / Fbg / Hb / Ht / Lym / MCH / MCV / Mono / Neu / PT / Plat / RBC / Ret / WBC / MCHC: tissue Blood; for KIDNEY_L / KIDNEY_R / KIDNEY_TOTAL: tissue Kidney; for LIVER: tissue Liver
# [1] = 100 mg/kg, […], dose level Low, time 28 day
# [2] = 300 mg/kg, 72 h, dose level Middle, time 3 day
# [3] = 300 mg/kg, […], dose level Middle, time 7 day
# [4] = 300 mg/kg, […], dose level Middle, time 14 day
# [5] = 300 mg/kg, […], dose level Middle, time 28 day
compound,measurement,setting,value
CCOc1ccc(NC(C)=O)cc1 [PHENACETIN],TP,[1],6.4 g/dL
same,gamma-GTP,[1],1 IU/L
same,TERMINAL_BW,[2],224.3 g
same,APTT,[2],21.5 s
same,Bas,[2],0%
same,Eos,[2],1.2%
same,Fbg,[2],290.8 mg/dL
same,Hb,[2],13.5 g/dL
same,Ht,[2],40.7%
same,Lym,[2],75.2%
same,MCH,[2],19.9 pg
same,MCV,[2],60.1 fL
same,Mono,[2],3.4%
same,Neu,[2],19.4%
same,PT,[2],13.4 s
same,Plat,[2],119.3 x10_4/uL
same,RBC,[2],678.8 x10_4/ul
same,Ret,[2],4.8%
same,WBC,[2],98.2 x10_2/uL
same,KIDNEY_L,[2],1 g
same,KIDNEY_R,[2],1 g
same,KIDNEY_TOTAL,[2],2 g
same,LIVER,[2],11.1 g
same,ALP,[2],1609.6 IU/L
same,ALT,[2],39.2 IU/L
same,AST,[2],66.2 IU/L
same,BUN,[2],13 mg/dL
same,CRE,[2],0.2 mg/dL
same,Ca,[2],11.1 mg/dL
same,Cl,[2],104.8 meq/L
same,DBIL,[2],0.01 mg/dL
same,GLC,[2],166 mg/dL
same,IP,[2],6.9 mg/dL
same,K,[2],4 meq/L
same,LDH,[2],69.4 IU/L
same,Na,[2],143.2 meq/L
same,PL,[2],174.4 mg/dL
same,RALB,[2],2.7 g/dL
same,TBIL,[2],0.044 mg/dL
same,TC,[2],80.4 mg/dL
same,TG,[2],145.4 mg/dL
same,TP,[2],5.7 g/dL
same,gamma-GTP,[2],1 IU/L
same,TERMINAL_BW,[3],262.8 g
same,TERMINAL_BW,[4],306 g
same,TERMINAL_BW,[5],397.8 g
same,APTT,[3],17.4 s
same,Bas,[3],0%
same,Eos,[3],1%
same,Fbg,[3],302.6 mg/dL
same,Hb,[3],13.3 g/dL
same,Ht,[3],40.1%
same,Lym,[3],71.8%
same,MCH,[3],20 pg
same,MCV,[3],60.2 fL
same,Mono,[3],2.8%
same,Neu,[3],24.2%
same,PT,[3],13.3 s
same,Plat,[3],122.3 x10_4/uL
same,RBC,[3],666.2 x10_4/ul
same,Ret,[3],6.7%
same,WBC,[3],103.2 x10_2/uL
same,Bas,[4],0.2%
same,Eos,[4],1%
same,Fbg,[4],273.2 mg/dL
same,Lym,[4],74.4%
same,MCH,[4],19.9 pg
same,MCHC,[4],33.5%
same,MCV,[4],59.3 fL
same,Mono,[4],2.2%
same,Neu,[4],21.8%
same,PT,[4],13.1 s
same,Plat,[4],125.2 x10_4/uL
same,RBC,[4],696.6 x10_4/ul
same,Ret,[4],6.5%
same,WBC,[4],128 x10_2/uL
same,APTT,[5],21.1 s
same,Bas,[5],0.2%
same,Eos,[5],1.2%
same,Fbg,[5],262.4 mg/dL
same,Hb,[5],14.4 g/dL
same,Ht,[5],42.5%
same,Lym,[5],76.4%
same,MCH,[5],19.1 pg
same,MCHC,[5],33.8%
same,MCV,[5],56.4 fL
same,Mono,[5],1.8%
same,PT,[5],13.7 s
same,Plat,[5],103.8 x10_4/uL
same,RBC,[5],754.2 x10_4/ul
same,Ret,[5],4.9%
same,WBC,[5],159.4 x10_2/uL
same,KIDNEY_L,[3],1.2 g
same,KIDNEY_R,[3],1.1 g
same,KIDNEY_TOTAL,[3],2.3 g
same,KIDNEY_L,[4],1.2 g
same,KIDNEY_R,[4],1.2 g
same,KIDNEY_TOTAL,[4],2.5 g
same,KIDNEY_L,[5],1.4 g
same,KIDNEY_R,[5],1.4 g
same,KIDNEY_TOTAL,[5],2.9 g
same,LIVER,[4],12.6 g
same,ALP,[3],1712.6 IU/L
same,ALT,[3],39.4 IU/L
same,AST,[3],64.6 IU/L
same,CRE,[3],0.2 mg/dL
same,Ca,[3],11 mg/dL
same,Cl,[3],104.2 meq/L
same,DBIL,[3],0.008 mg/dL
same,GLC,[3],177.8 mg/dL
same,IP,[3],6.9 mg/dL
same,K,[3],4.3 meq/L
same,LDH,[3],79.4 IU/L
same,PL,[3],174.4 mg/dL
same,RALB,[3],2.7 g/dL
same,TBIL,[3],0.048 mg/dL
same,TC,[3],81.6 mg/dL
same,TG,[3],149 mg/dL
same,TP,[3],5.9 g/dL
same,gamma-GTP,[3],1.4 IU/L
same,ALP,[4],1577.4 IU/L
same,ALT,[4],37.2 IU/L
same,AST,[4],63 IU/L
same,BUN,[4],14.2 mg/dL
same,CRE,[4],0.2 mg/dL
same,Ca,[4],10.7 mg/dL
same,DBIL,[4],0.02 mg/dL
same,GLC,[4],181.8 mg/dL
same,IP,[4],6.3 mg/dL
same,K,[4],4.3 meq/L
same,LDH,[4],159.2 IU/L
same,Na,[4],144.2 meq/L
same,PL,[4],162.2 mg/dL
same,RALB,[4],2.7 g/dL
same,TBIL,[4],0.086 mg/dL
same,TC,[4],78.4 mg/dL
same,TG,[4],91.2 mg/dL
same,TP,[4],5.9 g/dL
same,gamma-GTP,[4],1 IU/L
same,ALP,[5],1081 IU/L
same,ALT,[5],40 IU/L
same,AST,[5],63 IU/L
same,BUN,[5],14.4 mg/dL
same,CRE,[5],0.3 mg/dL
same,Cl,[5],105.6 meq/L
same,DBIL,[5],0.02 mg/dL
same,GLC,[5],175.4 mg/dL
same,IP,[5],5.9 mg/dL
same,K,[5],4.1 meq/L
same,LDH,[5],53.2 IU/L
same,Na,[5],145 meq/L
same,PL,[5],156.2 mg/dL
same,RALB,[5],2.8 g/dL
same,TBIL,[5],0.074 mg/dL
same,TC,[5],70.2 mg/dL
same,TG,[5],122.8 mg/dL
same,TP,[5],6.2 g/dL
same,gamma-GTP,[5],1 IU/L
